Test results: the supplement of paper PMC6045584
± gives the standard deviation of the averaged measurements.

Tests used:
MLN-4924 = compound: NS(=O)(=O)OC[C@@H]1C[C@@H](n2ccc3c(N[C@H]4CCc5ccccc54)ncnc32)C[C@@H]1O [MLN-4924]; assay: surviving fraction relative to DMSO-only wells; higher = less growth inhibition; details: exposure time: 5 days
How it was run: (§1)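 For each tumour cell line, log-phase cells were put into 384-well plates at 250–500 cells per well, then after 24 hours exposed continuously for five days to inhibitors at 0.5, 1, 5, 10, 50, 100, 500 and 1000 nM. Viability was assessed by CellTiter-Glo luminescence, with surviving fraction expressed relative to the median of DMSO-only wells. Lines were screened three times and retained only if replicate Pearson r exceeded 0.7 and median Z' exceeded 0.3.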

[1] = compound: C[C@@H](Oc1cc(-c2cnn(C3CCNCC3)c2)cnc1N)c1c(Cl)ccc(F)c1Cl; assay: as above; details: exposure time: 5 days
How it was run: as §1

CAL51 BREAST showed a surviving fraction (MLN-4924; 0.5 nM) of 1.01 ± 0.035, a surviving fraction (MLN-4924; 1 nM) of 1.01 ± 0.045 and a surviving fraction (MLN-4924; 5 nM) of 1.06 ± 0.025. The surviving fraction (MLN-4924; 10 nM) was 1.01 ± 0.051, the surviving fraction (MLN-4924; 50 nM) was 0.922 ± 0.067 and the surviving fraction (MLN-4924; 100 nM) was 0.702 ± 0.085. It also gave a surviving fraction (MLN-4924; 500 nM) of 0.2 ± 0.022, a surviving fraction (MLN-4924; 1000 nM) of 0.128 ± 0.012 and a surviving fraction ([1]; 0.5 nM) of 0.958 ± 0.033. The surviving fraction ([1]; 1 nM) was 0.918 ± 0.099, the surviving fraction ([1]; 5 nM) was 1 ± 0.023 and the surviving fraction ([1]; 10 nM) was 0.909 ± 0.049. For the same test system, the surviving fraction ([1]; 50 nM) was 0.972 ± 0.046, the surviving fraction ([1]; 100 nM) was 0.949 ± 0.026 and the surviving fraction ([1]; 500 nM) was 0.215 ± 0.017. For the same test system, the surviving fraction ([1]; 1000 nM) was 0.175 ± 0.0096.
CAL72 BONE showed a surviving fraction (MLN-4924; 0.5 nM) of 1.02 ± 0.11, a surviving fraction (MLN-4924; 1 nM) of 0.996 ± 0.12 and a surviving fraction (MLN-4924; 5 nM) of 1.02 ± 0.1. It also gave a surviving fraction (MLN-4924; 10 nM) of 1.04 ± 0.068, a surviving fraction (MLN-4924; 50 nM) of 1.1 ± 0.031 and a surviving fraction (MLN-4924; 100 nM) of 0.933 ± 0.085. For the same test system, the surviving fraction (MLN-4924; 500 nM) was 0.299 ± 0.063, the surviving fraction (MLN-4924; 1000 nM) was 0.154 ± 0.042 and the surviving fraction ([1]; 0.5 nM) was 1 ± 0.02. The surviving fraction ([1]; 1 nM) was 1.04 ± 0.024, the surviving fraction ([1]; 5 nM) was 1.02 ± 0.029 and the surviving fraction ([1]; 50 nM) was 1.09 ± 0.047. The surviving fraction ([1]; 100 nM) was 1.1 ± 0.013, the surviving fraction ([1]; 500 nM) was 0.903 ± 0.025 and the surviving fraction ([1]; 1000 nM) was 0.9047 ± 0.0064.
CAL120 BREAST gave a surviving fraction (MLN-4924; 0.5 nM) of 0.961 ± 0.064, a surviving fraction (MLN-4924; 1 nM) of 0.963 ± 0.028 and a surviving fraction (MLN-4924; 5 nM) of 0.952 ± 0.06. For the same test system, the surviving fraction (MLN-4924; 10 nM) was 0.889 ± 0.068, the surviving fraction (MLN-4924; 50 nM) was 0.667 ± 0.057 and the surviving fraction (MLN-4924; 100 nM) was 0.482 ± 0.036. The surviving fraction (MLN-4924; 500 nM) was 0.14 ± 0.0021, the surviving fraction (MLN-4924; 1000 nM) was 0.121 ± 0.0033 and the surviving fraction ([1]; 0.5 nM) was 0.912 ± 0.011. It also gave a surviving fraction ([1]; 5 nM) of 0.908 ± 0.029, a surviving fraction ([1]; 10 nM) of 0.898 ± 0.02 and a surviving fraction ([1]; 100 nM) of 0.935 ± 0.017. It also gave a surviving fraction ([1]; 500 nM) of 0.676 ± 0.091 and a surviving fraction ([1]; 1000 nM) of 0.547 ± 0.013.
CASKI CERVIX showed a surviving fraction (MLN-4924; 0.5 nM) of 0.955 ± 0.033, a surviving fraction (MLN-4924; 1 nM) of 0.961 ± 0.028 and a surviving fraction (MLN-4924; 5 nM) of 1.04 ± 0.084. It also gave a surviving fraction (MLN-4924; 10 nM) of 1.03 ± 0.082, a surviving fraction (MLN-4924; 50 nM) of 0.507 ± 0.017 and a surviving fraction (MLN-4924; 100 nM) of 0.301 ± 0.016. It also gave a surviving fraction (MLN-4924; 500 nM) of 0.168 ± 0.013, a surviving fraction (MLN-4924; 1000 nM) of 0.153 ± 0.0032 and a surviving fraction ([1]; 0.5 nM) of 0.829 ± 0.056. For the same test system, the surviving fraction ([1]; 1 nM) was 0.782 ± 0.081, the surviving fraction ([1]; 5 nM) was 0.816 ± 0.011 and the surviving fraction ([1]; 50 nM) was 0.925 ± 0.022. The surviving fraction ([1]; 100 nM) was 0.88 ± 0.014, the surviving fraction ([1]; 500 nM) was 0.308 ± 0.018 and the surviving fraction ([1]; 1000 nM) was 0.303 ± 0.036.
For CHLA90 AUTONOMIC GANGLIA, the surviving fraction (MLN-4924; 0.5 nM) was 1.006 ± 0.0078, the surviving fraction (MLN-4924; 1 nM) was 0.969 ± 0.05 and the surviving fraction (MLN-4924; 5 nM) was 0.984 ± 0.062. It also gave a surviving fraction (MLN-4924; 10 nM) of 1.03 ± 0.019, a surviving fraction (MLN-4924; 50 nM) of 1.2 ± 0.065 and a surviving fraction (MLN-4924; 100 nM) of 0.993 ± 0.028. For the same test system, the surviving fraction (MLN-4924; 500 nM) was 0.697 ± 0.13, the surviving fraction (MLN-4924; 1000 nM) was 0.525 ± 0.041 and the surviving fraction ([1]; 0.5 nM) was 0.996 ± 0.039. It also gave a surviving fraction ([1]; 5 nM) of 0.855 ± 0.042, a surviving fraction ([1]; 50 nM) of 0.812 ± 0.037 and a surviving fraction ([1]; 100 nM) of 0.785 ± 0.019. It also gave a surviving fraction ([1]; 500 nM) of 0.479 ± 0.029 and a surviving fraction ([1]; 1000 nM) of 0.328 ± 0.023.
Test System CME SYNOVIAL has a surviving fraction (MLN-4924; 0.5 nM) of 1.19 ± 0.11, a surviving fraction (MLN-4924; 1 nM) of 1.25 ± 0.15 and a surviving fraction (MLN-4924; 5 nM) of 1.32 ± 0.19. For the same test system, the surviving fraction (MLN-4924; 10 nM) was 1.27 ± 0.07, the surviving fraction (MLN-4924; 50 nM) was 0.692 ± 0.1 and the surviving fraction (MLN-4924; 100 nM) was 0.271 ± 0.026. The surviving fraction (MLN-4924; 500 nM) was 0.273 ± 0.019, the surviving fraction (MLN-4924; 1000 nM) was 0.304 ± 0.023 and the surviving fraction ([1]; 0.5 nM) was 0.902 ± 0.043. For the same test system, the surviving fraction ([1]; 5 nM) was 0.98 ± 0.25, the surviving fraction ([1]; 10 nM) was 0.902 ± 0.12 and the surviving fraction ([1]; 50 nM) was 1.04 ± 0.04. For the same test system, the surviving fraction ([1]; 100 nM) was 1.06 ± 0.14, the surviving fraction ([1]; 500 nM) was 0.634 ± 0.054 and the surviving fraction ([1]; 1000 nM) was 0.272 ± 0.007.
COLO320DM LARGE INTESTINE showed a surviving fraction (MLN-4924; 0.5 nM) of 1.1 ± 0.026, a surviving fraction (MLN-4924; 1 nM) of 1.21 ± 0.045 and a surviving fraction (MLN-4924; 5 nM) of 1.14 ± 0.12. The surviving fraction (MLN-4924; 10 nM) was 1.15 ± 0.1, the surviving fraction (MLN-4924; 50 nM) was 1.06 ± 0.043 and the surviving fraction (MLN-4924; 100 nM) was 0.996 ± 0.03. The surviving fraction (MLN-4924; 500 nM) was 0.803 ± 0.11, the surviving fraction (MLN-4924; 1000 nM) was 0.693 ± 0.03 and the surviving fraction ([1]; 1 nM) was 1.13 ± 0.071. For the same test system, the surviving fraction ([1]; 5 nM) was 1.02 ± 0.041, the surviving fraction ([1]; 10 nM) was 0.977 ± 0.042 and the surviving fraction ([1]; 50 nM) was 1.05 ± 0.042. For the same test system, the surviving fraction ([1]; 100 nM) was 1.02 ± 0.027, the surviving fraction ([1]; 500 nM) was 0.512 ± 0.0092 and the surviving fraction ([1]; 1000 nM) was 0.341 ± 0.011.
Test System DU4475 BREAST has a surviving fraction (MLN-4924; 0.5 nM) of 0.976 ± 0.098, a surviving fraction (MLN-4924; 1 nM) of 1.02 ± 0.028 and a surviving fraction (MLN-4924; 5 nM) of 0.894 ± 0.049. The surviving fraction (MLN-4924; 10 nM) was 0.683 ± 0.11, the surviving fraction (MLN-4924; 50 nM) was 0.033 ± 0.001 and the surviving fraction (MLN-4924; 100 nM) was 0.0267 ± 0.0042. It also gave a surviving fraction (MLN-4924; 500 nM) of 0.0323 ± 0.0011, a surviving fraction (MLN-4924; 1000 nM) of 0.0333 ± 0.0011 and a surviving fraction ([1]; 0.5 nM) of 0.798 ± 0.13. It also gave a surviving fraction ([1]; 1 nM) of 0.753 ± 0.041, a surviving fraction ([1]; 5 nM) of 0.83 ± 0.15 and a surviving fraction ([1]; 10 nM) of 0.706 ± 0.14. For the same test system, the surviving fraction ([1]; 50 nM) was 0.748 ± 0.089, the surviving fraction ([1]; 100 nM) was 0.722 ± 0.23 and the surviving fraction ([1]; 500 nM) was 0.423 ± 0.18. It also gave a surviving fraction ([1]; 1000 nM) of 0.0877 ± 0.041.
